The values below come from patent US6617329B2, “Aminoquinazolines and their use as medicaments” (Boehringer Ingelheim Pharma KG, priority 2000, dated 2003).

T1 sequence (P00533 25-1210): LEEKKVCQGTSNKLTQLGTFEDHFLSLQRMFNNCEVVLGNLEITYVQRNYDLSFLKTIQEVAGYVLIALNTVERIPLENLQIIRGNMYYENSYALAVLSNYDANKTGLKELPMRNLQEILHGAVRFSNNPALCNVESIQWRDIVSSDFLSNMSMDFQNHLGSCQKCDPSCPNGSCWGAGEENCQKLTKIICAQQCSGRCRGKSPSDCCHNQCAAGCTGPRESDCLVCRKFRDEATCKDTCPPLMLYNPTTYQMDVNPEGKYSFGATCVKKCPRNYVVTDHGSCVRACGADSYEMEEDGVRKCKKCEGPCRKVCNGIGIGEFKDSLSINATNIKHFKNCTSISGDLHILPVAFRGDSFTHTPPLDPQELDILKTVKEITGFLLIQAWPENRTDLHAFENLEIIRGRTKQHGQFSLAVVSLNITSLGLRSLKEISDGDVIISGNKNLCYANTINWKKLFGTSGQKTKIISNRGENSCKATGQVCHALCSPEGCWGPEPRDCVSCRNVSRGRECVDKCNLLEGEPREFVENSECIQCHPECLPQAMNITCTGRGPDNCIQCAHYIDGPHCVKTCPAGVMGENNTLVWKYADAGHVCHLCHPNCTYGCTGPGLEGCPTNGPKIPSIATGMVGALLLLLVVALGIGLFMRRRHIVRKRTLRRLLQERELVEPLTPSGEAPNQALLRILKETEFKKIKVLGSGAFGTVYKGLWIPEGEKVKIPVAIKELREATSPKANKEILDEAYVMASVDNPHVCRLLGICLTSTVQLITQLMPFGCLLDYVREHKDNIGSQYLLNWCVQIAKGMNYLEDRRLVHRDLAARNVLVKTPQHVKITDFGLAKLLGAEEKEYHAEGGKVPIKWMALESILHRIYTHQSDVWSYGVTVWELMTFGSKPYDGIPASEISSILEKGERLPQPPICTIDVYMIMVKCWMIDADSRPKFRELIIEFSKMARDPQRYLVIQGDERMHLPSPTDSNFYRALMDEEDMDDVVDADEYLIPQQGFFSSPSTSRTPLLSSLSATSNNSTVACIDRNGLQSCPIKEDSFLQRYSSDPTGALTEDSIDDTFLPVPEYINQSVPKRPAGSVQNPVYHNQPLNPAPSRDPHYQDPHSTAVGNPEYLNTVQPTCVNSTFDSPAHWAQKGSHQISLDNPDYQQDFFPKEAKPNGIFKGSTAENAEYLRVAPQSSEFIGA

This experiment concerns the target T1, human EGF-R (Homo sapiens, UniProt P00533).
T1 construct: expressed in transfected cells; host or cells: F/L-HERc cells (murine IL-3-dependent FDC-P1 line transduced with LXSN retroviral vector carrying human EGF-R cDNA; packaging line GP+E86)
The experiment is described as follows: Inhibition of EGF-dependent proliferation of F/L-HERc cells (Cell Titer 96 AQueous assay). In kind it is cell-based. The conditions noted are these: F/L-HERc cells (murine IL-3-dependent line expressing human EGF-R), stimulated with EGF 20 ng/ml, 48 hours at 37° C. From the text: A cell line of murine origin dependent on interleukin-3-(IL-3) which was genetically modified to express functional human EGF-R was used here. The proliferation of these cells known as F/L-HERc can therefore be stimulated either by murine IL-3 or by EGF (cf. von Rüden, T. et al. in EMBO J. 7, 2749-2756 (1988). and Pierce, J. H. et al. in Science 239, 628-631 (1988)).
The starting material used for the F/L-HERc cells was the cell line FDC-P1, the production of which has been described by Dexter, T. M. et al. in J. Exp. Med. 152, 1036-1047 (1980). Alternatively, however, other growth-factor-dependent cells may also be used (cf. for example Pierce, J. H. et al. in Science 239, 628-631 (1988), Shibuya, H. et al. in Cell 70, 57-67 (1992) and Alexander, W. S. et al. in EMBO J. 10, 3683-3691 (1991)). For expressing the human EGF-R cDNA (cf. Ullrich, A. et al. in Nature 309, 418-425 (1984)) recombinant retroviruses were used as described by von Rüden, T. et al., EMBO J. 7, 2749-2756 (1988), except that the retroviral vector LXSN (cf. Miller, A. D. et al. in BioTechniques 7, 980-990 (1989)) was used for the expression of the EGF-R cDNA and the line GP+E86 (cf. Markowitz, D. et al. in J. Virol. 62, 1120-1124 (1988)) was used as the packaging cell.
F/L-HERc cells were cultivated in RPMI/1640 medium (Bio Whittaker), supplemented with 10% foetal calf serum (FCS, Boehringer Mannheim), 2 mM glutamine (Bio Whittaker), standard antibiotics and 20 ng/ml of human EGF (Promega), at 37° C. and 5% CO2. In order to investigate the inhibitory activity of the compounds according to the invention, 1.5×10^4 cells per well were cultivated in triplicate in 96-well dishes in the above medium (200 μl), the cell proliferation being stimulated with either EGF (20 ng/ml) or murine IL-3. The IL-3 used was obtained from culture supernatants of the cell line X63/0 mIL-3 (cf. Karasuyama, H. et al. in Eur. J. Immunol. 18, 97-104 (1988)). The compounds according to the invention were dissolved in 100% dimethylsulphoxide (DMSO) and added to the cultures in various dilutions, the maximum DMSO concentration being 1%. The cultures were incubated for 48 hours at 37° C.
In order to determine the inhibitory activity of the compounds according to the invention the relative cell number was measured in O.D. units using the Cell Titer 96™ AQueous Non-Radioactive Cell Proliferation Assay (Promega). The relative cell number was calculated as a percentage of the control (F/LHERc cells without inhibitor) and the concentration of active substance which inhibits the proliferation of the cells by 50% (IC50) was derived therefrom.
Broadly, the IC50 is the concentration at which inhibition is half-maximal. Compound `O=C1CC(N2CCN(CCOc3cc4ncnc(Nc5ccc(F)c(Cl)c5)c4cc3OC3CCCC3)CC2)CO1` (stereo not shown) [3(1), 4-[(3-chloro-4-fluorophenyl)amino]-6-cyclopentyloxy-7-{2-[4-(2-oxo-tetrahydrofuran-4-yl)-piperazin-1-yl]-ethoxy}-quinazoline] yielded an IC50 of 11 nM.

Turning to `O=C1OCCC1N1CCN(CCOc2cc3ncnc(Nc4ccc(F)c(Cl)c4)c3cc2OC2CCCC2)CC1` (stereo not shown) [Example 1, 4-[(3-chloro-4-fluorophenyl)amino]-6-cyclopentyloxy-7-{2-[4-(2-oxo-tetrahydrofuran-3-yl)-piperazin-1-yl]-ethoxy}-quinazoline], the IC50 was found to be 4 nM.

In the case of `O=C1CC(N2CCN(CCOc3cc4ncnc(Nc5ccc(F)c(Cl)c5)c4cc3OCC3CCCC3)CC2)CO1` (stereo not shown) [Example 3, 4-[(3-chloro-4-fluorophenyl)amino]-6-cyclopentylmethoxy-7-{2-[4-(2-oxo-tetrahydrofuran-4-yl)-piperazin-1-yl]-ethoxy}-quinazoline], the IC50 stood at 62 nM.

Compound `O=C1CC[C@H](CN2CCN(CCOc3cc4ncnc(Nc5ccc(F)c(Cl)c5)c4cc3OC3CCCC3)CC2)O1` [Example 4, 4-[(3-chloro-4-fluorophenyl)amino]-6-cyclopentyloxy-7-(2-{4-[(R)-(2-oxo-tetrahydrofuran-5-yl)methyl]-piperazin-1-yl}-ethoxy)-quinazoline] returned an IC50 of 67 nM.
